Data set [1] has as its system murine Lewis lung carcinoma (LLC) cells in immunocompetent C57BL/6 mice. Briefly: Tumor graft model: LLC cells in C57BL/6 mice. It is filed as in vivo, mouse. The note with it: 5 mg/kg intraperitoneal CDDP + intraperitoneal Orlistat (240 mg/Kg), three times a week. As to the method:
(§1) C57BL/6 (H-2b) and Swiss Nude mice were obtained from Janvier (Le Genest St. Isle, France) and Charles River, respectively. Animals were maintained in pathogen-free conditions, and all experiments were carried out (upon approval by the local ethical committee) according to the Federation of European Laboratory Animal Science Association (FELASA) guidelines. Mice were used between 6 and 12 weeks of age. During the experiments, animals were subjected to artificial light cycle (12 h lights on-12 h lights off) and allowed food and drink ad libitum.
(§2) 5×10^5 LLC and A549 cells were subcutaneously xenografted (in 100 μL sterile PBS) in 25-30 immunocompetent (C57BL/6) and immunodeficient (Swiss Nude) mice, respectively. When the surface of tumors reached 25-40 mm^2, n=4-6 mice were assigned to either of 4 different treatment groups: group 1=100 μL intraperitoneal PBS; group 2=5 mg/kg intraperitoneal CDDP in 100 μL PBS; group 3=240 mg/Kg intraperitoneal Orlistat® in 40 μL PBS; group 4=5 mg/kg intraperitoneal CDDP in 100 μL PBS+intraperitoneal Orlistat® in 40 μL PBS. Treatments were administered three times a week (day 1, 3 and 5; day 8=day 1). Tumor size was monitored on the day of treatment by means of a standard calliper and tumor volume was extrapolated as previously described {Streit, 1999}. […] Statistical significance was evaluated by two-way ANOVA.

The test system of data set [2] is A549 cells. Briefly: Cytofluorometric assessment of cell death (DiOC6(3)/PI co-staining). Format: cell-based, human. The procedure: Unless otherwise specified, chemicals were purchased from Sigma-Aldrich (St. Louis, USA), culture media and supplements for cell culture from Gibco-Invitrogen (Carlsbad, USA) and plasticware from Corning (Corning, USA). […] Orlistat (Xenical®) was obtained from Roche (Basel, Switzerland). […] Undissolved material was removed by two sequential rounds of centrifugation at 12,000 G (5 min, room temperature, RT), supernatants were collected and stored at −80° C. under protection from light until use. In low-throughput experiments, all cell lines were treated with 2.5 mM pyridoxine (PN), exception made for A549 cells that received 5 mM PN.
To avoid depleting the siRNA library of selected sequences, siRNAs for validation experiments were purchased as custom molecules from Sigma-Aldrich. For low-throughput experiments, (see below for the transfection protocols employed in the siRNA screen), siRNA were transfected in A549 cells with Oligofectamine™ reagent (Invitrogen), following the manufacturer's instructions. Transfection with a non-targeting siRNA (siUNR) was employed as a negative control condition. Forty-eight hours after transfection, siRNA-mediated target downregulation was assessed by immunoblotting (see below).
All cytofluorometric determinations were carried out a FACSCalibur or a FACScan cytofluorometer (BD Biosciences, San Jose, USA) equipped with a 70 μm nozzle.
First line statistical analysis of cytofluorometric results was performed by using the CellQuest™ software (BD Biosciences), by gating on the events characterized by normal forward scatter and side scatter parameters. Apoptosis- and cell cycle-related data were further analyzed with Microsoft Excel (Microsoft Co., Redmond, USA) and statistical significance was assessed by means of two-tailed Student's t test (p<0.05).

Data set [3] relates to A549 cells xenografted into immunodeficient Swiss nude mice. In words: Tumor graft model: A549 cells in Swiss nude mice. Format: in vivo, mouse. The note with it: A549 cells on Swiss nude mice; 5 mg/kg intraperitoneal CDDP + intraperitoneal Orlistat (240 mg/Kg), three times a week. The procedure: as §1, §2

SMILES strings stand for the structures.

Take `CCCCCCCCCCC[C@@H](C[C@@H]1OC(=O)[C@H]1CCCCCC)OC(=O)[C@H](CC(C)C)NC=O` [Orlistat®, Orlistat]: the “antitumor effects of CDDP-based chemotherapy (tumor growth)” value in data set [1] and in data set [3] was “augmented the antitumor effects of CDDP-based chemotherapy in vivo” in each case. The “cytotoxicity of CDDP upon pharmacological inhibition of LIPC” value in data set [2] (A549 cells in vitro, 25 or 75 μM CDDP) is “enhanced the cytotoxiticy of CDDP against A549 cells in vitro”. The “CDDP-induced killing, LIPC inhibition (orlistat) combined with IL6R inhibition” value in data set [2] (A549 cells, followed by CDDP, DiOC6(3)/PI co-staining) was “synergistically sensitized to CDDP-induced killing”.

These data come from patent US20130281313A1, “PROGNOSTIC AND/OR PREDICTIVE BIOMARKERS AND BIOLOGICAL APPLICATIONS THEREOF” (INSTITUT GUSTAVE ROUSSY, priority 2010, published 2013).
